From patent publication US20250057793A1, “BENZOIC ACID SALTS FOR TREATMENT OF NERVOUS SYSTEM INJURIES AND DISORDERS” (The United States Government as represented by the …, priority 2021, published 2025)

How the values were obtained:
[1] = test system: mouse RAW 264.7 macrophages; experiment: NO production from stimulated RAW 264.7 macrophages (nitrite, Griess reagent); format: cell-based; details: cinnamein pretreatment 6 h, serum-free, 24 h; for LPS-induced production of NO (nitrite): 1 μg/ml LPS; for IFNγ-induced production of NO (nitrite): 25 U/ml IFNγ
Method: FIGS. 18A-18C. Cinnamein inhibits the induction of NO production from LPS- and IFNγ-stimulated mouse RAW 264.7 macrophages. FIG. 18A) Cells preincubated with different concentrations of cinnamein for 6 h were stimulated with 1 μg/ml LPS under serum-free condition. After 24 h of stimulation, the level of nitrite was measured in supernatants by Griess reagent. FIG. 18B) Cells preincubated with 400 μM cinnamein for different hours were stimulated with 1 μg/ml LPS under serum-free condition. After 24 h of stimulation, the level of nitrite was measured in supernatants. FIG. 18C) Cells preincubated with different concentrations of cinnamein for 6 h were stimulated with 25 U/ml IFNγ under serum-free condition. After 24 h of stimulation, the level of nitrite was measured in supernatants. Results are mean+SD of three independent experiments. *p<0.05; **p<0.01; ***p<0.001; NS, not significant.

primary mouse microglia = experiment: Proinflammatory cytokine production in primary mouse microglia (ELISA); format: cell-based; details: cinnamein 6 h, serum-free, 24 h
Method: FIGS. 19A-19B. Cinnamein inhibits LPS- and polyIC-induced production of TNFα in primary mouse microglia. Microglia isolated from 2d old mouse pups were incubated with different concentrations of cinnamein for 6 h followed by stimulation with either 1 μg/ml LPS (FIG. 19A) or 50 μg/ml polyIC (FIG. 19B) under serum-free condition. After 24 h of stimulation, the level of TNFα was measured in supernatants by ELISA. Results are mean+SD of three independent experiments. *p<0.05; **p<0.01; ***p<0.001; NS, not significant.
FIGS. 20A-20B. Cinnamein suppresses the production of IL-1j3 from LPS- and poly IC-stimulated primary mouse microglia. Cells preincubated with different concentrations of cinnamein for 6 h were stimulated with either 1 μg/ml LPS (FIG. 20A) or 50 μg/ml polyIC (FIG. 20B) under serum-free condition. After 24 h of stimulation, the level of […] was measured in supernatants by ELISA. Results are mean+SD of three independent experiments. ***p<0.001.
FIGS. 21A-21B. Cinnamein decreases LPS- and polyIC-induced production of IL-6 in primary mouse microglia. Microglia were incubated with different concentrations of cinnamein for 6 h followed by stimulation with either 1 μg/ml LPS (FIG. 21A) or 50 μg/ml polyIC (FIG. 21B) under serum-free condition. After 24 h of stimulation, the level of IL-6 was measured in supernatants by ELISA. Results are mean+SD of three independent experiments. ***p<0.001.

primary mouse astrocytes = experiment: Proinflammatory cytokine production in primary mouse astrocytes (ELISA); format: cell-based; details: cinnamein 6 h, 50 μg/ml poly IC, serum-free, 24 h
Method: FIGS. 22A-22B. Cinnamein inhibits the production of proinflammatory cytokines from polyIC-stimulated primary mouse astrocytes. Astrocytes preincubated with different concentrations of cinnamein for 6 h were stimulated with 50 μg/ml poly IC under serum-free condition. After 24 h of stimulation, levels of TNFα (FIG. 22A) and IL-6 (FIG. 22B) were measured in supernatants by ELISA. Results are mean+SD of three independent experiments. *p<0.05; **p<0.01; ***p<0.001.

CCI-induced TBI mice [2] = experiment: Glial activation and iNOS in brain of CCI-induced TBI mice (immunofluorescence, Western blot); details: cortex and hippocampus
CCI-injured mice [3] = experiment: Rotarod test in CCI-injured mice; format: in vivo, mouse; details: 50 mg/kg/day oral
Method: The forehindlimb motor coordination and balance in animals was observed using the rotarod test as described in earlier studies. Briefly, each mouse was placed on the confined section of the rod and trial was initiated with a smooth increase in speed from 4 rpm to 40 rpm for 5 mins. […] The latency to fall was measured in seconds and used for the analysis. Following the CCI injury, each mouse performed the task three trials during the testing sessions and the average score on these three trials was used as the individual rotarod score. Each trial on the rod was terminated when the mice fell off the rod or held on to the rod by hanging and completed improper revolutions.

[4] = test system: mice with traumatic brain injury (TBI); experiment: Remyelination in corpus callosum of mice with TBI (PLP/A2B5 double-labeling); format: in vivo, mouse; details: 50 mg/kg body weight/day oral gavage
Method: FIG. 4 are images of the corpus collosum in mice showing the levels of proteolipid protein (PLP) and A2B5, a marker of oligodendroglial progenitor cells (OPC), in the experimental conditions after 21 days. Oral administration of sodium benzoate (NaB), but not sodium formate (NaFO), stimulates remyelination in mice with traumatic brain injury (TBI). Mice (n=6 per group) were induced moderate TBI by controlled cortical impact (CCI). Starting from 2 hours after TBI, mice were treated with NaB and NaFO (50 mg/kg body weight/day; mixed with water) orally via gavage. After 21 d of treatment, brain sections were double-labeled for PLP and A2B5.
Proteolipid protein (PLP) is a marker of oligodendrocytes and A2B5 is a marker of oligodendroglial progenitor cells (OPC). After 21 days of treatment, brain sections were double-labeled with antibodies against PLP and A2B5.

CCI-injured mice [5] = experiment: Grid runway in CCI-injured mice; format: in vivo, mouse; details: 7 day post-injury, 50 mg/kg/day oral
From the text: The grid runway (65 cm length×8 cm breadth×1 cm intervals) made of parallel grid bars with interbar intervals of 1 cm apart and grid were kept above the surface on a table during the testing session. The soft padding was positioned under the grid run-way in the event for protection to avoid serious injury, if the animal falls from the grid. Each mouse was allowed to walk freely on grid and the time taken and number of steps to cross the runway was noted. Each successful foot placement on grid was recorded as a step. However, an error was considered whenever the paw slips through the grid or the paw misses a bar and extends downwards through the plane of bars. The locomotor behavior of animal on grid was evaluated by an observer blinded to the treatment on 7th and 21st day after CCI injury.

[6] = test system: OPCs cultured on polycaprolactone nanofibers; experiment: Myelination of synthetic polycaprolactone nanofibers by OPCs; format: cell-based, mouse; details: 100 μM, 2 days after 7 days culture on nanofibers
Method: FIG. 15A) After 18 h of 100 μM NaB treatment in serum-free condition, cells were fixed and then dual immuno-stained with MBP (red) and OPC marker NG2 (green). Nuclei were stained with DAPI (blue). FIG. 15B) Similarly, OPCs were stained with PLP (red) and A2B5 (green) under similar treatment condition. Quantification of MBP+(FIG. 15C), NG2+(FIG. 15D), PLP+(FIG. 15E), and A2B5+(FIG. 15F) cells as a percentage of total cells (DAPI+). Average 5 fields per slide, total 3 slides. Results are mean+SEM. ***p<0.001. FIG. 15G) For protein expression, cells were treated with different doses of NaB for 18 h under serum free condition and then immunoblotted with PLP and MOG. FIG. 15H) Densitometric analyses of the bands relative to beta actin were done for PLP and MOG. ^ap<0.001 vs. control PLP; ^bp<0.005 vs. control MOG. FIG. 151) Cells were treated with NaB (100 μM) and NaFO (100 μM) for 4 h under serum-free condition followed by monitoring the mRNA expression of myelin-specific genes by real-time PCR (ap<0.01 vs. control PLP; ^bp<0.01 vs. control MOG; cp<0.01 vs. control MBP; dp<0.01 vs. control CNPase). OPCs were cultured on the top of randomly-oriented polycaprolactone nanofibers (Nanofiber Solutions; Cat #Z694576) for 7 days. […]

[7] = test system: oligodendroglial progenitor cells (OPCs); experiment: Maturation of oligodendroglial progenitor cells (OPCs) into oligodendrocytes; format: cell-based, mouse; details: 100 μM, 18 h, serum-free, absence of FGF and PDGF
Method: FIGS. 15A-15L: Effect of sodium benzoate (NaB) on the maturation of oligodendroglial progenitor cells (OPCs) into oligodendrocytes. OPCs were isolated from P1˜P2 neonatal mouse pups, cultured in OPC media for 4 days in vitro (DIV) followed by treatment with 100 μM NaB and sodium formate (NaFO) in the absence of FGF and PDGF.
FIG. 15A) After 18 h of 100 μM NaB treatment in serum-free condition, cells were fixed and then dual immuno-stained with MBP (red) and OPC marker NG2 (green). Nuclei were stained with DAPI (blue). FIG. 15B) Similarly, OPCs were stained with PLP (red) and A2B5 (green) under similar treatment condition. Quantification of MBP+(FIG. 15C), NG2+(FIG. 15D), PLP+(FIG. 15E), and A2B5+(FIG. 15F) cells as a percentage of total cells (DAPI+). Average 5 fields per slide, total 3 slides. Results are mean+SEM. ***p<0.001. FIG. 15G) For protein expression, cells were treated with different doses of NaB for 18 h under serum free condition and then immunoblotted with PLP and MOG. FIG. 15H) Densitometric analyses of the bands relative to beta actin were done for PLP and MOG. ^ap<0.001 vs. control PLP; ^bp<0.005 vs. control MOG. FIG. 151) Cells were treated with NaB (100 μM) and NaFO (100 μM) for 4 h under serum-free condition followed by monitoring the mRNA expression of myelin-specific genes by real-time PCR (ap<0.01 vs. control PLP; ^bp<0.01 vs. control MOG; cp<0.01 vs. control MBP; dp<0.01 vs. control CNPase). OPCs were cultured on the top of randomly-oriented polycaprolactone nanofibers (Nanofiber Solutions; Cat #Z694576) for 7 days. After that, these cells were treated with 100 μM NaB (FIG. 15J) and NaFO (K) for additional 2 days followed by immunofluorescence analysis for MBP (red) (FIG. 15J, control; FIG. 15K, NaB; FIG. 15L, NaFO). […] Representative 3D constructed images of OPCs adhered to nanofibers were also shown at the right side.

TBI mice = experiment: Barnes maze test in TBI mice; format: in vivo, mouse; details: NOR, Barnes maze and T maze, 21 days, 50 mg/kg/day oral
Method: The Barnes maze test was performed as described in our earlier studies. Briefly, the mice were initially trained for 2 consecutive days followed by examination on day 3. After each training session, maze and escape tunnel were thoroughly cleaned with a mild detergent to avoid instinctive odor avoidance due to mouse's odor from the familiar object. On day 3, a video camera (Basler Gen I Cam—Basler acA 1300-60) connected to a Noldus computer system was placed above the maze and was illuminated with high voltage light that generated enough light and heat to motivate animals to enter into the escape tunnel. The performance was monitored by the video tracking system (Noldus System). Cognitive behavior parameters were examined by measuring latency (duration before all four paws were on the floor of the escape box) and errors (incorrect response before all four paws were on the floor of the escape box).

CCI-induced TBI mice [8] = experiment: Lesion volume in CCI-induced mice (Cavalieri stereology); format: in vivo, mouse
Method: FIG. 5C is a plot showing lesion size in the experimental conditions. Lesion size was quantitatively measured in control mice, untreated CCI injured mice, NaB treated CCI-mice and NaFO-treated CCI-mice at 21 days post-injury. Statistical analyses were performed with Student's t-test in the injured side of the brain [^ap<0.001 (5.623×10^−7) vs control; ^bp<0.001 (=0.001) vs CCI injury].
FIGS. 10A-10C. Decrease in lesion volume in TBI mice by GTB treatment. […] FIG. 10A. […] FIG. 10C. Lesion volume was quantified in all groups of mice. Statistical analyses were performed with two way ANOVA and expressed as mean±SD to compare the lesion volume between unlesioned and lesioned side of the brain.
The estimation of lesion volume was performed based on the Cavalieri method of unbiased stereology using the StereoInvestigator software (MicroBright Biosciences, USA). Both the ipsilateral and contralateral hemisphere of brain volumes were determined using the Cavalieri estimator with a 1 mm grid spacing 1 mm. Every fourth section was analyzed beginning from a random start point. Lesion volume was estimated by subtracting the volume of the ipsilateral hemisphere from that of the contralateral hemi-sphere. Then the volume of lesion cavity estimated in brain section of untreated mice was compared with lesion volume of brain sections of drug treated mice.

[9] = 1 μg/ml LPS, listed as Cinnamein
[10] = 50 μg/ml polyIC, listed as Cinnamein
[11] = day 7 post-injury, 50 mg/kg/day oral from 24 h after CCI

O=C(/C=C/c1ccccc1)OCc1ccccc1 [cinnamein, Cinnamein]
LPS-induced production of NO (nitrite) [1]: significantly inhibited
LPS-induced production of NO (nitrite) ([1]; listed as Cinnamein): inhibits
IFNγ-induced production of NO (nitrite) [1]: significantly inhibited
IFNγ-induced production of NO (nitrite) ([1]; listed as Cinnamein): inhibits
LPS-induced production of IL-6 (primary mouse microglia; 1 μg/ml LPS): strongly inhibited
LPS-induced production of TNFα (primary mouse microglia; 1 μg/ml LPS): strongly inhibited
production of IL-1β (primary mouse microglia; 1 μg/ml LPS): strongly inhibited
LPS-induced production of IL-6 (primary mouse microglia; [9]): decreases
LPS-induced production of TNFα (primary mouse microglia; [9]): inhibits
production of IL-1β (primary mouse microglia; [9]): suppresses
polyIC-induced production of IL-6 (primary mouse microglia; 50 μg/ml polyIC): strongly inhibited
polyIC-induced production of TNFα (primary mouse microglia; 50 μg/ml polyIC): strongly inhibited
production of IL-1β (primary mouse microglia; 50 μg/ml polyIC): strongly inhibited
polyIC-induced production of IL-6 (primary mouse microglia; [10]): decreases
polyIC-induced production of TNFα (primary mouse microglia; [10]): inhibits
production of IL-1β (primary mouse microglia; [10]): suppresses
polyIC-induced production of IL-6 (primary mouse astrocytes): inhibited
polyIC-induced production of TNFα (primary mouse astrocytes): inhibited
polyIC-induced production of IL-6 (primary mouse astrocytes; listed as Cinnamein): inhibits
polyIC-induced production of TNFα (primary mouse astrocytes; listed as Cinnamein): inhibits

O=C[O-].[Na+] [NaFO, sodium formate]
iNOS / iNOS-positive cells (CCI-induced TBI mice [2]; day 7, 50 mg/kg/day oral): not
GFAP-positive astrocytes (CCI-induced TBI mice [2]; [11]): remained unable to inhibit glial activation
Iba1-positive microglia (CCI-induced TBI mice [2]; [11]): remained unable to inhibit glial activation
latency to fall on rotarod (CCI-injured mice [3]; 7 day post-injury): not
latency to fall on rotarod (CCI-injured mice [3]; 21 day post-injury): not
level of PLP in corpus callosum ([4]; 21 days of treatment): remained unable to restore
number of OPCs (A2B5 positive) in corpus callosum ([4]; 21 days of treatment): remained unable
remyelination ([4]; 21 d of treatment): not
gait movement on grid runway (steps, time taken, foot misplacement) (CCI-injured mice [5]): not
myelination of synthetic fibers (MBP immunofluorescence) [6]: not
differentiation/maturation of OPCs into oligodendrocytes (MBP+, PLP+, NG2+, A2B5+ cells) [7]: did not promote
hippocampus-dependent behaviors / cognitive performance (TBI mice): remained unable to improve
total lesion volume / size of lesion cavity (CCI-induced TBI mice [8]; cresyl violet sections, 21 days post-injury, 50 mg/kg/day oral): not
structural-tissue integrity of damaged hippocampus (CCI-induced TBI mice [8]; oral treatment started 24 h after CCI): remained unable to exhibit such protection
